Legend:
[1] = test system: HDQ-P1; experiment: normalised viability (% of control), CellTiter-Blue; higher = more viable cells (about 100 = DMSO control); conditions: 3 nM; incubation time: 72 h
Procedure, shortened: (§1)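 Each value is normalised viability at a single listed concentration of the series. Breast cancer cell lines in 384-well plates were incubated 72 h with compound and read by CellTiter-Blue fluorescence at 560/590 nm, with vehicle set to 100 and a positive kill control to 0 on every plate.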

[2] = test system: CAL-85-1; experiment: as above; conditions: 3 nM; incubation time: 72 h
Procedure, shortened: as §1

[3] = test system: DU-4475; experiment: as above; conditions: 3 nM; incubation time: 72 h
Procedure, shortened: as §1

[4] = test system: MDA-MB-231; experiment: as above; conditions: 100 nM; incubation time: 72 h
Procedure, shortened: as §1

[5] = test system: Hs578T; conditions: 72 h
Protocol: (§2)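 Drug sensitivity and resistance testing (DSRT) of breast cancer cell lines in 384-well plates, 5 concentrations in 10-fold dilutions over a compound-specific 10,000-fold range. After 72 h, cytotoxicity was read by CellTox Green fluorescence and viability by CellTiter-Glo luminescence (multiplexed), normalised to DMSO and benzethonium chloride controls. EC50 is the inflection point of the fitted dose-response curve (bottom asymptote free, so it can be relative for partial curves) and is censored at the highest tested concentration. Rows with DSS 0 (no meaningful response) were excluded.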

[6] = test system: CAL-51; conditions: 72 h
Protocol: as §2

[7] = test system: CAL-148; conditions: 72 h
Protocol: as §2

[8] = test system: CAL-120; conditions: 72 h
Protocol: as §2

[9] = test system: CAL-85-1; conditions: 72 h
Protocol: as §2

[10] = test system: MDA-MB-231; conditions: 72 h
Protocol: as §2

[11] = test system: HCC1599; conditions: 72 h
Procedure, shortened: (§3)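 Rows with a drug sensitivity score of zero were dropped, and EC50 was taken from the fitted percent-inhibition dose-response curve, censored at the highest concentration. Data were normalised on each plate to vehicle and a positive kill control and checked by Z'-factor. The assay seeded breast cancer cell lines in 20 µl onto 384-well plates pre-loaded with compound in 5 µl medium for 72 h, then added 2.5 µl CellTiter-Blue for 2 h at 37 °C and read fluorescence at 560/590 nm.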

[12] = test system: HCC1937; conditions: 72 h
Procedure, shortened: as §3

[13] = test system: Hs578T; conditions: 72 h; remark: listed apart in the source
Procedure, shortened: as §3

[14] = test system: CAL-120; conditions: 72 h; remark: listed apart in the source
Procedure, shortened: as §3

[15] = test system: SK-BR-3; conditions: 72 h
Procedure, shortened: as §3

[16] = test system: MDA-MB-468; conditions: 72 h
Procedure, shortened: as §3

[17] = test system: BT-474; conditions: 72 h
Procedure, shortened: as §3

[18] = test system: MDA-MB-436; conditions: 72 h
Procedure, shortened: as §3

[19] = test system: MDA-MB-231; conditions: 72 h; remark: listed apart in the source
Procedure, shortened: as §3

[20] = test system: BT-549; conditions: 72 h
Procedure, shortened: as §3

[21] = test system: HCC1599; conditions: 72 h; remark: listed apart in the source
Procedure, shortened: (§4)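 Breast cancer cell lines in 20 µl suspension were added to 384-well plates already holding compound at 5 concentrations, spaced in 10-fold steps across a compound-specific 10,000-fold range, and incubated for 72 h. CellTox Green fluorescence (485/520 nm) was read first to measure cell death, followed by CellTiter-Glo luminescence for viability after 10 min at room temperature. Each plate was normalised to 0.1 % DMSO and a positive kill control. EC50 values came from dose-response curve fits and were censored at the top concentration.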

[22] = test system: HCC1143; conditions: 72 h
Procedure, shortened: as §4

[23] = test system: CAL-148; conditions: 72 h; remark: listed apart in the source
Procedure, shortened: as §4

[24] = test system: DU-4475; conditions: 72 h
Procedure, shortened: as §4

[25] = test system: CAL-51; conditions: 72 h; remark: listed apart in the source
Procedure, shortened: as §3

[26] = test system: CAL-148; conditions: 72 h; remark: listed apart in the source
Procedure, shortened: as §3

[27] = test system: CAL-85-1; conditions: 72 h; remark: listed apart in the source
Procedure, shortened: as §3

[28] = test system: DU-4475; conditions: 72 h; remark: listed apart in the source
Procedure, shortened: as §3

O=C1NC(=O)[C@@H](c2cn3c4c(cccc24)CCC3)[C@@H]1c1c[nH]c2ccccc12 [Tivantinib]
normalised viability [1]: 120%
normalised viability [2]: 95.7%
normalised viability [3]: 89.2%
normalised viability [4]: 105%
EC50, CellTox Green [5]: 96.6 nM
EC50, CellTox Green [6]: 671 nM
EC50, CellTox Green [7]: 6.67 nM
EC50, CellTox Green [8]: 399 nM
EC50, CellTox Green [9]: 266 nM
EC50, CellTox Green [10]: 474 nM
EC50, CellTiter-Blue viability [11]: 331 nM
EC50, CellTiter-Blue viability [12]: 99 nM
EC50, CellTiter-Blue viability [13]: 592 nM
EC50, CellTiter-Blue viability [14]: 398 nM
EC50, CellTiter-Blue viability [15]: 597 nM
EC50, CellTiter-Blue viability [16]: 578 nM
EC50, CellTiter-Blue viability [17]: 613 nM
EC50, CellTiter-Blue viability [18]: 43.5 nM
EC50, CellTiter-Blue viability [19]: 676 nM
EC50, CellTiter-Blue viability [20]: 340 nM
EC50, CellTiter-Glo [21]: 973 nM
EC50, CellTiter-Glo [22]: > 1000 nM
EC50, CellTiter-Glo [23]: 810 nM
EC50, CellTiter-Glo [24]: 222 nM
EC50, CellTiter-Blue viability [25]: 674 nM
EC50, CellTiter-Blue viability [26]: 759 nM
EC50, CellTiter-Blue viability [27]: 543 nM
EC50, CellTiter-Blue viability [28]: 847 nM
